Entries after “also recorded” stand apart in the source; their conditions may differ.
Experiments:
[1] = system: cirrhotic subjects with RA; test: Open-label, single-arm clinical study of docarpamine on ascites formation (frequency of LVP, volume of ascitic fluid drained); type: in vivo, human
Experimental: An open-label, single-arm study in which each subject serves as his/her own control is conducted. The study assesses the effect of DCP treatment on ascites formation in cirrhotic subjects with RA, by examining the frequency of LVP and the volume of ascitic fluid drained. All subjects participate in a 90-day open-label treatment period. […] Ascites history (relevant medications, LVP dates, and volume of drained fluid) for the 90 days prior to treatment and the 90 days after treatment are collected and used for comparison with on-treatment frequency and volume. The study population consists of cirrhotic patients between 18 and 70 years of age, inclusive, with refractory ascites, subject to the following inclusion and exclusion criteria. • Patients 18 years to 70 years of age. • Documented cirrhosis of the liver. • Refractory ascites, defined as ascites not manageable with diuretics and diet restriction, managed with periodic large volume therapeutic paracentesis. • Patients must have therapeutic […] 3 days prior to enrollment and a documented minimum of 3 additional therapeutic […] 90 days prior to enrollment, with at least 1 every 30 days. • Outpatient, with expected survival of at least 6 months. • Willing and able to complete an informed consent form.

RA patients = conditions: small cohort of RA patients; cited from earlier work
patients with RA = conditions: cited from earlier work
[2] = administered orally; high rates of metabolism in gut / small intestine and liver; cited from earlier work
[3] = high dose 4500 mg per day (1500 mg 3 times per day), 90 days treatment, on average, vs 90 days prior to treatment

Structure (SMILES) | effects on LVP, ascites volume and renal markers at low dose ([1]; 750 mg 3 times per day (2250 mg per day), 90 days: effects not observed) | time during which patients do not require LVP ([1]; 4500 mg per day group, some patients / others) | other markers of improved renal function ([1]; 4500 mg per day, 90 days) | sodium excretion ([1]; 4500 mg per day, 90 days) | Renin and/or aldosterone levels ([1]; 4500 mg per day, many patients, in some cases to normal) | urinary output on treatment ([1]; 4500 mg per day, most patients, from 500-1000 ml before, printed '1500-2000 ml or more') | frequency of LVP over 90 days [1, 3] | volume of ascites removed over 90 days [1, 3] | frequency and volume of LVP once a patient stops treatment ([1]; off-treatment follow-up after 90 days at 4500 mg per day) | persistence of the decrease in LVP after stopping treatment ([1]; off-treatment follow-up, before beginning to increase again) | efficacy in refractory ascites (RA patients) | changes of blood urea nitrogen, creatinine, creatinine clearance, blood pressure, pulse rate, serum sodium, serum aldosterone and GFR (patients with RA) | effective renal plasma flow (patients with RA) | oral bioavailability [2]
CCOC(=O)Oc1ccc(CCNC(=O)[C@H](CCSC)NC(C)=O)cc1OC(=O)OCC [docarpamine] | only in the high dose | more than one month; also recorded: more than two months | respond positively | Increased | reduced | 1500 to 2000 mL | reduced by more than half | reduced by more than half | greater decreases | one or more months | effective |  |  | 
NCCc1ccc(O)c(O)c1 [dopamine] |  |  |  |  |  |  |  |  |  |  |  | no difference | Positive effects | not orally bioavailable
